Test results reported in patent publication US5178662A, “Benzaldehyde acetal compounds, preparation process thereof, and herbicidal compositions containing the same as active ingredients” (Mitsui Toatsu Chemicals, Inc., priority 1990, dated 1993).

Key:
Format in all cases: in vivo
common lambsquarters [1] = assay: Upland soil application test, common lambsquarters; details: Chenopodium album, 1200 h; soil application one day after seeding, 50 g ai/a, wettable powder, fresh weight on 50th day after spray; read-out: Herbicidal effects Common lambquarters
Procedure: (§1) Resin-made 1/1000-are pots were filled with the soil of an upland field. After they were fertilized, cotton and soybean were seeded and 3 cm soil covering was applied. In addition, amaranth, common lambs-quarters, barnyardgrass, green foxtail, large crabgrass and johnsongrass were seeded and 1 cm soil covering was applied. One day later, a wettable powder prepared from a predetermined amount of each test compound in a similar manner to the procedures described in Formulation Example 1 was diluted with water and then sprayed evenly at an application rate equal to 10 l per are onto the surface of the soil by means of a pressure-operated sprayer. The weeds and crops were allowed to grow in a green house and influence to them were observed on the 50th day after the spray. The degree of damages of each test plant and the degree of injury to each crop were determined by measuring fresh weight in each group and indicated by % calculated according to the following formula. [formula]

[2] = test system: johnsongrass emerging from rhizome; assay: Application test on johnsongrass emerging from rhizome; details: foliar application at stage of 4-5 leaves, application rate of active ingredient 20 (unit not given), emulsion, 50th day after spray
Procedure: as §1
Resin-made 1/1000-are pots were filled with the soil of an upland field. After they were fertilized, rhizome of johnsongrass were transplanted to the pots and 3 cm soil covering was applied. They were allowed to grow in a green house. When each johnsongrass grew to the stage of 4-5 leaves, an emulsion formulated from a predetermined amount of each test compound in a similar manner to the procedures described in Formulation Example 11 was diluted with water and then sprayed at a predetermined application rate by means of a pressure-operated sprayer. The application rate was controlled at 5 l per are. The effect of each compound against the johnsongrass emerging from its rhizome was observed on the 50th day after the spray of the herbicides. The results are shown in Table 5 in which the herbicidal effect against johnsongrass is shown in a similar manner to Test 2.

Johnsongrass [3] = assay: Upland soil application test, johnsongrass; details: Sorghum halepense, 1200 h; soil application one day after seeding, 50 g ai/a, wettable powder, fresh weight on 50th day after spray; read-out: Herbicidal effects Johnsongrass
Procedure: as §1

Soybean (Glycine max) [4] = assay: Upland soil application test, crop injury soybean; details: soil application one day after seeding, 50 g ai/a, wettable powder, fresh weight on 50th day after spray
Procedure: as §1

[5] = test system: Crabgrass (Digitaria adscendens); assay: Upland soil application test, large crabgrass; details: 1200 h, soil application one day after seeding, 50 g ai/a, wettable powder, fresh weight on 50th day after spray, read-out: Herbicidal effects Crabgrass (Digitaria adscendens)
Procedure: as §1

[6] = test system: Crabgrass (Digitaria adscendens); assay: Upland foliar application test, large crabgrass; details: 960 h, foliar application at stage of 2-3 leaves, 50 g ai/a, emulsion, 40th day after spray, read-out: Herbicidal effects Crabgrass (Digitaria adscendens)
Procedure: as §1
(§2) Resin-made 1/1000-are pots were filled with the soil of an upland field. After they were fertilized, cotton and soybean were seeded and 3 cm soil covering was applied. Five days later, amaranth, common lambsquarters, barnyardgrass, green foxtail, large crabgrass and johnsongrass were seeded and 1 cm soil covering was applied. They were allowed to grow in a green house. When each plant grew to the stage of 2-3 leaves, an emulsion formulated from a predetermined amount of each test compound in a similar manner to the procedures described in Formulation Example 11 was diluted with water and then sprayed at a predetermined application rate by means of a pressure-operated sprayer. The application rate was controlled at 5 l per are. Influence to the crops and weeds were observed on the 40th day after the spray of the herbicides. The results are shown in Table 4 in which the degree of damages of each test plant and the degree of injury to each crop are shown in a similar manner to Test 2.

[7] = test system: Cotton (Gossypium indicum); assay: Upland soil application test, crop injury cotton; details: soil application one day after seeding, 50 g ai/a, wettable powder, fresh weight on 50th day after spray
Procedure: as §1

[8] = test system: Barnyardgrass (Echinochloa crusgalli); assay: Upland soil application test, barnyardgrass; details: Echinochloa crus-galli, 1200 h; soil application one day after seeding, 50 g ai/a, wettable powder, fresh weight on 50th day after spray; read-out: Herbicidal effects Barnyardgrass (Echinochloa crusgalli)
Procedure: as §1

common lambsquarters [9] = assay: Upland foliar application test, common lambsquarters; details: Chenopodium album, 960 h; foliar application at stage of 2-3 leaves, 50 g ai/a, emulsion, 40th day after spray; read-out: Herbicidal effects Common lambquarters
Procedure: as §2

[10] = test system: Cotton (Gossypium indicum); assay: Upland foliar application test, crop injury cotton; details: foliar application at stage of 2-3 leaves, 50 g ai/a, emulsion, 40th day after spray
Procedure: as §1, §2

Johnsongrass [11] = assay: Upland foliar application test, johnsongrass; details: Sorghum halepense, 960 h; foliar application at stage of 2-3 leaves, 50 g ai/a, emulsion, 40th day after spray; read-out: Herbicidal effects Johnsongrass
Procedure: as §2

[12] = test system: Amaranth (Amaranthus viridis); assay: Upland soil application test, amaranth; details: 1200 h, soil application one day after seeding, 50 g ai/a, wettable powder, fresh weight on 50th day after spray, read-out: Herbicidal effects Amaranth (Amaranthus viridis)
Procedure: as §1

[13] = test system: Foxtail (Setaria viridis); assay: Upland foliar application test, green foxtail; details: 960 h, foliar application at stage of 2-3 leaves, 50 g ai/a, emulsion, 40th day after spray, read-out: Herbicidal effects Foxtail (Setaria viridis)
Procedure: as §1, §2

Soybean (Glycine max) [14] = assay: Upland foliar application test, crop injury soybean; details: foliar application at stage of 2-3 leaves, 50 g ai/a, emulsion, 40th day after spray
Procedure: as §2

[15] = test system: Barnyardgrass (Echinochloa crusgalli); assay: Upland foliar application test, barnyardgrass; details: Echinochloa crus-galli, 960 h; foliar application at stage of 2-3 leaves, 50 g ai/a, emulsion, 40th day after spray; read-out: Herbicidal effects Barnyardgrass (Echinochloa crusgalli)
Procedure: as §2

[16] = test system: Amaranth (Amaranthus viridis); assay: Upland foliar application test, amaranth; details: 960 h, foliar application at stage of 2-3 leaves, 50 g ai/a, emulsion, 40th day after spray, read-out: Herbicidal effects Amaranth (Amaranthus viridis)
Procedure: as §1, §2

[17] = test system: Foxtail (Setaria viridis); assay: Upland soil application test, green foxtail; details: 1200 h, soil application one day after seeding, 50 g ai/a, wettable powder, fresh weight on 50th day after spray, read-out: Herbicidal effects Foxtail (Setaria viridis)
Procedure: as §1

Compound	pest or weed control at 5000 g/ha (common lambsquarters [1]) [%]	Herbicidal effect against johnsongrass emerging from rhizome [2] [%]	pest or weed control at 5000 g/ha (Johnsongrass [3]) [%]	Crop injury Soybean (Glycine max) (Soybean (Glycine max) [4]) [%]	pest or weed control at 5000 g/ha [5] [%]	pest or weed control at 5000 g/ha [6] [%]	Crop injury Cotton (Gossypium indicum) [7] [%]	pest or weed control at 5000 g/ha [8] [%]	pest or weed control at 5000 g/ha (common lambsquarters [9]) [%]	Crop injury Cotton (Gossypium indicum) [10] [%]	pest or weed control at 5000 g/ha (Johnsongrass [11]) [%]	pest or weed control at 5000 g/ha [12] [%]	pest or weed control at 5000 g/ha [13] [%]	Crop injury Soybean (Glycine max) (Soybean (Glycine max) [14]) [%]	pest or weed control at 5000 g/ha [15] [%]	pest or weed control at 5000 g/ha [16] [%]	pest or weed control at 5000 g/ha [17] [%]
COc1cc(OC)nc(Oc2ccccc2C(OC)OC)n1 [Comp. Comp'd C, 2-(4,6-dimethoxypyrimidin-2-yloxy)benzaldehyde dimethylacetal, reference compound]	100	40	100	50	100	90	55	100	90	50	100	80	95	40	100	100	100
CCOC(OCC)c1ccccc1Oc1nc(OC)cc(OC)n1 [Comp. Comp'd D, 2-(4,6-dimethoxypyrimidin-2-yloxy)benzaldehyde diethylacetal, reference compound]	100	50	100	40	85	90	45	100	90	35	100	100	95	35	100	100	100
COc1cc(OC)nc(Oc2c(Cl)cccc2C(OC)OC)n1 [Comp. Comp'd E, reference compound]	50	5	35	30	60	45	30	55	65	30	30	45	50	30	65	60	60
